Data set [1] in a line: Hygroscopicity determination (vapor sorption). The format is physicochemical. The settings on record: room temperature (25° C.). How it is done: Hygroscopicity Determination
The weight change of a test sample at room temperature (25° C.) and at 80% relative humidity (RH) was investigated by recording adsorption-desorption isotherms using a symmetric vapor-sorption analyser SGA-100 (VTI Corporation) using different methods, the main features being: a single sorption/desorption cycle from 0 to 90% RH in 10% RH steps with a dm/dt trigger value of 0.002%, (dm/dt=change in mass with time—when the balance stability is within this value the next step is automatically started, however, if those conditions are not achieved there is a default maximum time for each step of 6 hours). Approximately 2 to 10 mg of the test sample was placed in a sample holder and exposed to different relative humidities.

Data set [2] is described as follows: Estimated solubility of the salt in organic solvents. The format is physicochemical. The settings on record: organic solvent or mixture. The procedure:
(a) Form B was prepared by dissolving, in a vial, 20% w of a sample of the furoate salt prepared by the method of Example 1(b) (Form A) in a solvent such as ethanol (16 mg/ml) or 2-butanol (8 mg/ml). The figures in brackets indicate the estimated solubility of the salt in these solvents. The vial was then sealed and the suspension was homogenised at ambient temperature (20° C.) using a magnet. Stirring and temperature were maintained for a period of at least 7 days after which time a sample of the material obtained was dried and tested by XRPD. XRPD confirmed that there had been complete transformation of Form A to Form B.

The target of another data set is T1, human CCR1 (Homo sapiens, UniProt P32246).
T1 construct: expressed in transfected cells; membrane preparation
T1 sequence (P32246 1-355): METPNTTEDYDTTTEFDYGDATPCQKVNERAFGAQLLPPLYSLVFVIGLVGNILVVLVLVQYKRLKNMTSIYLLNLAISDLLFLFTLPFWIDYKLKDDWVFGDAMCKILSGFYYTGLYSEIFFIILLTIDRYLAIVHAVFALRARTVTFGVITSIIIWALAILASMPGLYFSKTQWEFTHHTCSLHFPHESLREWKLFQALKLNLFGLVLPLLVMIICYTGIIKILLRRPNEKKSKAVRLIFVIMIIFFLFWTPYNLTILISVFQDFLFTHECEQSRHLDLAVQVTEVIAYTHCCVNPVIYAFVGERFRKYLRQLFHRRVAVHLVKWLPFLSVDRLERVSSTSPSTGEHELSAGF
Nature of the data set: Human CCR1 binding assay. The settings on record: HEK-CCR1 membranes, displacement of 33 pM [125I] MIP-1α.

Where two headings read alike, the source gives them in different places.

Experimental for human CCR1: HEK293 cells, from ECACC, stably expressing recombinant human CCR1 (HEK-CCR1) were used to prepare cell membranes containing CCR1. The membranes were stored at −70° C. The concentration of membranes of each batch was adjusted to 10% specific binding of 33 pM [^125I] MIP-1α.
100 μL of HEK-CCR1 membranes diluted in assay buffer pH 7.4 (137 mM NaCl (Merck, Cat No 1.06404), 5.7 mM Glucose (Sigma, Cat No G5400), 2.7 mM KCl (Sigma, Cat No P-9333), 0.36 mM NaH2PO4×H2O (Merck, Cat No 1.06346), 10 mM HEPES (Sigma, Cat No H3375), 0.1% (w/v) Gelatine (Sigma, Cat No G2625)) with the addition of 17500 units/L Bacitracin (Sigma, Cat No B 1025) were added to each well of the 96 well filter plate (0.45 μm opaque Millipore cat no MHVB N4550). […] 12 μl assay buffer with 10% DMSO was added to certain wells (without compound) to detect maximal binding (B0).
12 μL [^125I] MIP-1α, diluted in assay buffer to a final concentration in the wells of 33 pM, was added to all wells. The plates with lid were then incubated for 1.5 hrs at room temperature. After incubation the wells were emptied by vacuum filtration (MultiScreen Resist Vacuum Manifold system, Millipore) and washed once with 200 μl assay buffer. After the wash, all wells received an addition of 50 μL of scintillation fluid (OptiPhase “Supermix”, Wallac Oy, Turko, Finland). Bound [^125I] MIP-1α was measured using a Wallac Trilux 1450 MicroBeta counter. […]

For `CC(=O)Nc1ccc(O)cc1OC[C@@](C)(O)CNC1CCN(Cc2ccc(Cl)cc2)CC1` [Form A, N-{2-[((2S)-3-{[1-(4-chlorobenzyl)piperidin-4-yl]amino}-2-hydroxy-2-methylpropyl)oxy]-4-hydroxyphenyl}acetamide furoate], the “Water Uptake (% w/w) at 80% RH” value in data set [1] is recorded as less than 0.8 % w/w. Besides, the solubility in data set [2] (solvent 2-butanol, read-out: estimated solubility of the salt in 2-butanol) is 8 mg/mL; in data set [2] (solvent ethanol, read-out: estimated solubility of the salt in ethanol) it was 16 mg/mL.
In turn, `CC(=O)Nc1ccc(O)cc1OC[C@@](C)(O)CNC1CCN(Cc2ccc(Cl)cc2)CC1` [N-{2-[((2S)-3-{[1-(4-chlorobenzyl)piperidin-4-yl]amino}-2-hydroxy-2-methylpropyl)oxy]-4-hydroxyphenyl}acetamide ditrifluoroacetate] came in with a 50% inhibitory concentration (IC50) on human CCR1 of less than 50 nM.

One may read the solubility as how much of the substance goes into solution per volume. One may read the IC50 as the concentration at which inhibition is half-maximal.

The values are drawn from patent US20080280951A1, “Salt Il” (ASTRAZENECA AB, priority 2005, published 2008).
